Assay results: paper PMC6013238, “Development of novel NEMO-binding domain mimetics for inhibiting IKK/NF-κB activation” (PLoS Biology, 2018)

Target: T1, GST-NEMO and FLAG-IKKβ (Homo sapiens, UniProt Q9Y6K9)
T1 construct: Recombinant full-length NEMO tagged with GST at the N-terminus; purchased SignalChem (GST-NEMO); Origene (IKKβ-FLAG)
Assay: IKKβ-NEMO binding assay (GST pull-down, recombinant proteins)
Settings: at 12.5 μM; 15 nM each protein
Experimental: To determine whether the novel NBD mimetics target the NEMO-IKKβ interaction in vivo, co-immunoprecipitations were performed using extracts from Raw 264.7 macrophages (Fig 5A). […] No interaction between NEMO and TNF receptor-associated factor 2 (TRAF2) or IκBα was observed under these conditions. […] The levels of phosphorylated IKK complex, IκBα, and p65 in response to TNF-α and LPS were all reduced by SR12343 (Fig 5D & 5E). […] However, there were no changes in the levels of phospho-c-Jun N-terminal kinase (p-JNK), p-p38MAPK, total JNK, and p38MAPK by treatment with SR12343 (150 μM) in response to TNF-α or LPS stimulation (Fig 5G & 5H). […]
(A) Co-IP analysis detecting the IKKβ/NEMO interaction. […] NEMO-binding products were then analyzed for levels of IKKβ, IKKα, TRAF2, and IκBα (negative control), and levels of NEMO were used as a loading control (left panel). […] The levels of IKKβ-FLAG binding to GST-NEMO were determined by western blot analysis with GST-NEMO used as a loading control. […] Cell lysates were analyzed for activity of the IKK/NF-κB signaling pathway including activation of IKK complex, IκBα, and p65. […] Cell lysates were harvested and analyzed for activation of noncanonical NF-κB signaling, the processing of p100 to p52. […]

T1 sequence (Q9Y6K9 whole entry): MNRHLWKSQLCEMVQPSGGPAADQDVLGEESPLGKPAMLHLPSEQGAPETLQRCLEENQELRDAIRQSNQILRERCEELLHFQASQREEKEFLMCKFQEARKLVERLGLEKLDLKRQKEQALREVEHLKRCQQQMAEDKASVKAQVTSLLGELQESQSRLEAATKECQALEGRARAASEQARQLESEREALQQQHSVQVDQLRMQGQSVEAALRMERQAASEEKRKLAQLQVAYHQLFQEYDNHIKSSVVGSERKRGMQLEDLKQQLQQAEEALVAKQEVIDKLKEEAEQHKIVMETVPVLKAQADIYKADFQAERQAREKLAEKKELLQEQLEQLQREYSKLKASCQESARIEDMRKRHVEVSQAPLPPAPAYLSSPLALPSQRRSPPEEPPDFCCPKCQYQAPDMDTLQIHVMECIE

O=C(CNc1ccc(Cl)cn1)NCCc1cccc(Br)c1 [SR12343]
Disruption of interaction between GST-NEMO and FLAG-IKKβ: able to disrupt
